Results: PMC9551036, “A selective and orally bioavailable VHL-recruiting PROTAC achieves SMARCA2 degradation in vivo” (Nature Communications, 2022)
Several values for one entry are separate records, joined by “and”; a condition that tells them apart may be missing. Equal values may be shown once.

Experiments:
SMARCA2/4 [1] = target: T1, SMARCA2/4 (Homo sapiens, UniProt P51531); assay: SMARCA2/4 half-life (cycloheximide) and re-synthesis after compound 6 and VHL binder in HCT116 and RKO; type: cell-based; conditions: for K (one phase exponential decay) / Tau (one phase exponential decay): CHX
T1 construct: endogenous in cells; host or cells: HCT116, RKO
T1 sequence (P51531 whole entry): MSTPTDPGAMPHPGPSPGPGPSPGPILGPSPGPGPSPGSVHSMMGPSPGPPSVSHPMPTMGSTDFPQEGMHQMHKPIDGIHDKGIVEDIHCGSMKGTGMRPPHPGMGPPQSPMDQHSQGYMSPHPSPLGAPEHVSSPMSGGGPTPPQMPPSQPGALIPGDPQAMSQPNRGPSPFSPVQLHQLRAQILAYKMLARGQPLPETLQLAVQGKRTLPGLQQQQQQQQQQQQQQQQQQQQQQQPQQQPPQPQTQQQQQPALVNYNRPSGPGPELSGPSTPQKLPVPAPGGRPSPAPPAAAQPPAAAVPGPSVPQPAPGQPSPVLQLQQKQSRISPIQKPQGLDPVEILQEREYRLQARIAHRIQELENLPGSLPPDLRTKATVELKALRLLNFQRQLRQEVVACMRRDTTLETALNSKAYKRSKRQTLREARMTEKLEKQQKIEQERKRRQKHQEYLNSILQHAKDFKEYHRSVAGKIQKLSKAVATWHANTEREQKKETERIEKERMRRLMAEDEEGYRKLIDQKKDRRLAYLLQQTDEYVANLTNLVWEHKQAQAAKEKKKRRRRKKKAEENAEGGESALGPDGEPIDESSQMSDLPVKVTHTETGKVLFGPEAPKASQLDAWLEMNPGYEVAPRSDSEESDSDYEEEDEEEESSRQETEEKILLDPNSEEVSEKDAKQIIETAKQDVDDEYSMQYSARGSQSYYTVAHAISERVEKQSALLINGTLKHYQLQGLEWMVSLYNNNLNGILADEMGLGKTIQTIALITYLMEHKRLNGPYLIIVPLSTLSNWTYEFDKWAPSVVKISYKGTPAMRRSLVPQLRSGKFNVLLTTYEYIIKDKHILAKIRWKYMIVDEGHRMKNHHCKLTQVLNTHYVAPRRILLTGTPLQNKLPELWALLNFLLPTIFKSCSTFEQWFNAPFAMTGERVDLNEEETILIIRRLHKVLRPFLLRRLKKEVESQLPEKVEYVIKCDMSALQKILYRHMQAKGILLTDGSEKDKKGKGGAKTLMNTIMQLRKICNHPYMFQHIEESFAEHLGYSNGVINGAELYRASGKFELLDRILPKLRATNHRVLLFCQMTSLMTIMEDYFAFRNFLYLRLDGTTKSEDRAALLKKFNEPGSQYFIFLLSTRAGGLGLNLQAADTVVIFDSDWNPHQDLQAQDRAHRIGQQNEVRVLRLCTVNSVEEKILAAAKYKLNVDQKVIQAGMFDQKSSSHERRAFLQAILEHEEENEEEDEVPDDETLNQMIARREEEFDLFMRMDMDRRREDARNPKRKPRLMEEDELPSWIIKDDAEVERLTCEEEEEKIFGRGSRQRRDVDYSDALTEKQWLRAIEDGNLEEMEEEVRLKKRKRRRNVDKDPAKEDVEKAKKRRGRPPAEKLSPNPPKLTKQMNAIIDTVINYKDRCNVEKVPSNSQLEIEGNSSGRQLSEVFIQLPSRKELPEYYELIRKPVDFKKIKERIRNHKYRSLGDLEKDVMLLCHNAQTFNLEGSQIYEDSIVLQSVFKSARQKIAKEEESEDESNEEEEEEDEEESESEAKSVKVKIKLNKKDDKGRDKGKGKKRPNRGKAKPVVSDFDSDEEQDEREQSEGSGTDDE
Procedure: (§1) 130,000–200,000 cells were seeded in 24-well plates and incubated until settled down or overnight. Compounds were dissolved in DMSO and added to cells in indicated concentrations using a digital dispenser following an optional media change. […] For SMARCA2/4 half-life determination, 150,000 or 200,000 cells were seeded in 24-well plates. […] For SMARCA2/4 re-synthesis measurements, 200,000 cells were seeded in 24-well plates. The next day, 100 nM compound 6 was added for 4 h to degrade SMARCA2/4, and a sample was taken as baseline for normalisation. […] Medium was removed, cells were washed with PBS and lysed with 80 µl Lysis Buffer (MSD Tris Lysis Buffer (#R60TX-2) + Halt Inhibitor Cocktail (100x) + Benzonase 0.5 µL/ml). Samples were frozen at −80 °C and thawed at room temperature before use. Samples were transferred to a V-bottom plate and insoluble debris was pelleted by centrifugation for 5 min at maximum speed. The supernatant was transferred to a fresh plate. Master Mix and Ladder were prepared according to manufacturer’s instructions for 12–230 kDa Wes Separation Module, 8 × 25 capillary cartridges, Protein Simple #SM-W004 with Anti-Rabbit Detection Module for Wes, Peggy Sue or Sally Sue, Protein Simple #DM-001. 4.8 µl lysate were mixed with 1.2 µl Master Mix to achieve a protein concentration of ~0.5 µg/µl. Antibodies were diluted in Antibody Diluent II (SMARCA2 Sigma #HPA029981 RRID:AB_10602406 1:25–100, SMARCA4 Cell Signalling #49360 clone D1Q7F RRID:AB_2728743 1:15–120 or Abcam #ab110641 clone EPNCIR111A RRID:AB_10861578 1:60, GAPDH Abcam #ab9485 RRID:AB_307275 1:250). Wes plates were prepared and run according to manufacturer’s instructions. Proteins were quantified with accompanying Compass Software. SMARCA2/4 protein levels were normalised to GAPDH. […] Where applicable, curves were fitted using a 4-parametric logistic model.

SMARCA2/4 [2] = target: T2, SMARCA2/4 (Homo sapiens, UniProt P51532); assay: as above; type: cell-based; conditions: for K (one phase exponential decay) / Tau (one phase exponential decay): CHX
T2 construct: endogenous in cells; host or cells: HCT116, RKO
T2 sequence (P51532 whole entry): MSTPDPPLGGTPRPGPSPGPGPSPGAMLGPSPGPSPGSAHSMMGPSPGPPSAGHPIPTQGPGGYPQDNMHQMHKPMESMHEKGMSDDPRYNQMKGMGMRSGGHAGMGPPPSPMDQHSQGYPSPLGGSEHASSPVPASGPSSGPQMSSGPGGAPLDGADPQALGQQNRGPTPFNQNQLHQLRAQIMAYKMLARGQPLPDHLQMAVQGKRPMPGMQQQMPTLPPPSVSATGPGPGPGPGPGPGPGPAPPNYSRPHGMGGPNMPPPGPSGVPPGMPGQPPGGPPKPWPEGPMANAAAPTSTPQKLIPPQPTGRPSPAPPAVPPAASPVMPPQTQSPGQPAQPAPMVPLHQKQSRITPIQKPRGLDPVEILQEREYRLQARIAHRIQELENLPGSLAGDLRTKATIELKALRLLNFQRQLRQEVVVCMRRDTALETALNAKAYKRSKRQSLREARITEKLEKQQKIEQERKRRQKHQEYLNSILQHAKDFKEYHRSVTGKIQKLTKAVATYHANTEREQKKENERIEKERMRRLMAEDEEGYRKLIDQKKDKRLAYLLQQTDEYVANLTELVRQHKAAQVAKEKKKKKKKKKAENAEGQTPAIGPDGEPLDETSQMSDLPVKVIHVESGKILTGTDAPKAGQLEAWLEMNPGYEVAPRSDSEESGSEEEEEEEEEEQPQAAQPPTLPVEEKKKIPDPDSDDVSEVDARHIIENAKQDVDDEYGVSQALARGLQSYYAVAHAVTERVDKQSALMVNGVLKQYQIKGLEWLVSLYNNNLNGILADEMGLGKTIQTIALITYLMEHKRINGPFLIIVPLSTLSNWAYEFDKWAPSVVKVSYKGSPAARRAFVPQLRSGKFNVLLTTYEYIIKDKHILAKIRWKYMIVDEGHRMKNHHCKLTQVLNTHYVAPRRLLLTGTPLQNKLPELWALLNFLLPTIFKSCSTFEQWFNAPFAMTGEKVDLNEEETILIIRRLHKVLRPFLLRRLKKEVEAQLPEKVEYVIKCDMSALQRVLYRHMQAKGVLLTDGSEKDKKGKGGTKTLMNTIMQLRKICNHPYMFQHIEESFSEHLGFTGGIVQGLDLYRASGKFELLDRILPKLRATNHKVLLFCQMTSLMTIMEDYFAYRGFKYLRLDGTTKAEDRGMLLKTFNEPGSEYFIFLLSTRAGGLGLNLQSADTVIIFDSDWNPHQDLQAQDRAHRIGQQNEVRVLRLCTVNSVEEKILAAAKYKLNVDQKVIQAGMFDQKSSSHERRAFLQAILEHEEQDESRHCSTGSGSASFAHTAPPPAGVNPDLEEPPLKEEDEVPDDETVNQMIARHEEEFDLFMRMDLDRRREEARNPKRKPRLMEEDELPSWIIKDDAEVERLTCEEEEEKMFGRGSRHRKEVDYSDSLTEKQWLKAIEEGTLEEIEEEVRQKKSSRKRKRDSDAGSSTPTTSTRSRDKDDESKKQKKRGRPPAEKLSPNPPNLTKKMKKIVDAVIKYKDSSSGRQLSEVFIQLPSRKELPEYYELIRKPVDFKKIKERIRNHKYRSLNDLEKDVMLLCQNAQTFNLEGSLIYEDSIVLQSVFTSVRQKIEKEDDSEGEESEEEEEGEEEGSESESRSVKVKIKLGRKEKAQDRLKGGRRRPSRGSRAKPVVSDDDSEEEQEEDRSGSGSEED
Procedure: as §1

In the case of `C[C@@H]1C[C@@H]([C@H](O)CC2CC(=O)NC(=O)C2)C(=O)[C@@H](C)C1` [CHX], the “K (one phase exponential decay)” value (SMARCA2/4 [1]; HCT116, SM2) is reported as 0.01756, the “Tau (one phase exponential decay)” value (SMARCA2/4 [1]; HCT116, SM2) is reported as 56.94 h and the fraction protein remaining (SMARCA2/4 [1]; HCT116, SM2, Time CHX 1 h) is reported as 0.9134 and 0.9119 and 0.8363. For the same molecule, the fraction protein remaining (SMARCA2/4 [1]; HCT116, SM2, Time CHX 2 h) was 1.19 and 0.984 and 1.003, the fraction protein remaining (SMARCA2/4 [1]; HCT116, SM2, Time CHX 6 h) was 1.2436 and 0.9973 and 0.8745 and the fraction protein remaining (SMARCA2/4 [1]; HCT116, SM2, Time CHX 18 h) was 0.8497 and 0.6816 and 0.6174. The fraction protein remaining (SMARCA2/4 [1]; HCT116, SM2, Time CHX 20 h) was 0.8836 and 0.7383 and 0.515, the “K (one phase exponential decay)” value (SMARCA2/4 [1]; RKO, SM2) was 0.03021 and the “Tau (one phase exponential decay)” value (SMARCA2/4 [1]; RKO, SM2) was 33.1 h. The fraction protein remaining (SMARCA2/4 [1]; RKO, SM2, Time CHX 1 h) was 0.6694 and 0.8157 and 0.6659, the fraction protein remaining (SMARCA2/4 [1]; RKO, SM2, Time CHX 2 h) was 0.8737 and 0.9723 and 0.8342 and the fraction protein remaining (SMARCA2/4 [1]; RKO, SM2, Time CHX 6 h) was 0.9472 and 0.9944 and 0.8492. The fraction protein remaining (SMARCA2/4 [1]; RKO, SM2, Time CHX 18 h) was 0.7207 and 0.4914 and 0.6074, the fraction protein remaining (SMARCA2/4 [1]; RKO, SM2, Time CHX 20 h) was 0.6704 and 0.4369 and 0.5438 and the “K (one phase exponential decay)” value (SMARCA2/4 [2]; HCT116, SM4) was 0.01934. The “Tau (one phase exponential decay)” value (SMARCA2/4 [2]; HCT116, SM4) was 51.7 h, the fraction protein remaining (SMARCA2/4 [2]; HCT116, SM4, Time CHX 1 h) was 0.9048 and 0.6354 and 0.681 and the fraction protein remaining (SMARCA2/4 [2]; HCT116, SM4, Time CHX 2 h) was 1.063 and 0.7806 and 0.7981. For the same molecule, the fraction protein remaining (SMARCA2/4 [2]; HCT116, SM4, Time CHX 6 h) was 0.982 and 0.7891 and 0.769, the fraction protein remaining (SMARCA2/4 [2]; HCT116, SM4, Time CHX 18 h) was 0.6017 and 0.6088 and 0.5084 and the fraction protein remaining (SMARCA2/4 [2]; HCT116, SM4, Time CHX 20 h) was 0.6375 and 0.6135 and 0.453. For the same molecule, the fraction protein remaining (SMARCA2/4 [2]; HCT116, SM4, Time CHX 24 h) was 0.6439 and 0.582 and 0.7075, the “K (one phase exponential decay)” value (SMARCA2/4 [2]; RKO, SM4) was 0.05848 and the “Tau (one phase exponential decay)” value (SMARCA2/4 [2]; RKO, SM4) was 17.1 h. For the same molecule, the fraction protein remaining (SMARCA2/4 [2]; RKO, SM4, Time CHX 1 h) was 0.6419 and 0.7642 and 0.7888, the fraction protein remaining (SMARCA2/4 [2]; RKO, SM4, Time CHX 2 h) was 0.6538 and 0.6196 and 0.6177 and the fraction protein remaining (SMARCA2/4 [2]; RKO, SM4, Time CHX 6 h) was 0.4106 and 0.4086 and 0.4599. For the same molecule, the fraction protein remaining (SMARCA2/4 [2]; RKO, SM4, Time CHX 18 h) was 0.3137 and 0.4693 and 0.3349, the fraction protein remaining (SMARCA2/4 [2]; RKO, SM4, Time CHX 20 h) was 0.3111 and 0.4007 and 0.3018 and the fraction protein remaining (SMARCA2/4 [2]; RKO, SM4, Time CHX 24 h) was 0.1564 and 0.2093 and 0.1216.
